From US6166000A, “Methods for preparation and use of 1α,24(S)-Dihydroxy vitamin . D.sub2” (priority 1995, dated 2000)

Columns and labels:
vitamin D receptor (VDR) = target: T1, vitamin D receptor (VDR) (Homo sapiens, UniProt P11473); experiment: Vitamin D-dependent transcriptional activation: growth hormone production in COS-1 cells co-transfected with VDR plasmid and VDRE-GH plasmid; format: cell-based; settings: in words
T1 sequence (P11473 1-427): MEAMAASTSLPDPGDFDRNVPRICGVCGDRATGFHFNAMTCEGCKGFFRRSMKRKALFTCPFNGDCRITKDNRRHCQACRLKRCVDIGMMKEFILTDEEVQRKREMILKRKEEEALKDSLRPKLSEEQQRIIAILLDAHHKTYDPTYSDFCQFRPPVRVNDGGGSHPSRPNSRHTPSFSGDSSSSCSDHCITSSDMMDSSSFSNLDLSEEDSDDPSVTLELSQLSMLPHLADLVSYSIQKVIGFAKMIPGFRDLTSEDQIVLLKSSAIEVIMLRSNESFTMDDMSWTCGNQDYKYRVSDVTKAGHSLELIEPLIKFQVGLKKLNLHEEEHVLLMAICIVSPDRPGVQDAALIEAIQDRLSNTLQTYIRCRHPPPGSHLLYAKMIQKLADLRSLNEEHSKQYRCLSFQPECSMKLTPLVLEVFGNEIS
Protocol: The biological activity in vitro of chemically synthesized 1α,24(S)-(OH)2 D2 and 1α,24(R)-(OH)2 D2 was measured using a vitamin D-dependent transcriptional activation model system in which a vitamin D receptor (VDR)-expressing plasmid pSG5-hVDR1/3and a plasmid p(CT4)^4 TKGH containing a Growth Hormone (GH)-gene, under the control of a vitamin D-responsive element (VDRE) were co-transfected into Green monkey kidney, COS-1 cells. DNA's for these two vectors were supplied by Dr. Mark Haussler, Department of Biochemistry, University of Arizona, Tucson, Ariz.
Tranfected cells were incubated with vitamin D metabolites and growth hormone production was measured.

[1] = target: T2, vitamin D serum binding protein (DBP) (Rattus norvegicus, UniProt P04276); experiment: Affinity for vitamin D serum binding protein using vitamin D deficient rat serum; settings: in words
T2 sequence (P04276 17-476): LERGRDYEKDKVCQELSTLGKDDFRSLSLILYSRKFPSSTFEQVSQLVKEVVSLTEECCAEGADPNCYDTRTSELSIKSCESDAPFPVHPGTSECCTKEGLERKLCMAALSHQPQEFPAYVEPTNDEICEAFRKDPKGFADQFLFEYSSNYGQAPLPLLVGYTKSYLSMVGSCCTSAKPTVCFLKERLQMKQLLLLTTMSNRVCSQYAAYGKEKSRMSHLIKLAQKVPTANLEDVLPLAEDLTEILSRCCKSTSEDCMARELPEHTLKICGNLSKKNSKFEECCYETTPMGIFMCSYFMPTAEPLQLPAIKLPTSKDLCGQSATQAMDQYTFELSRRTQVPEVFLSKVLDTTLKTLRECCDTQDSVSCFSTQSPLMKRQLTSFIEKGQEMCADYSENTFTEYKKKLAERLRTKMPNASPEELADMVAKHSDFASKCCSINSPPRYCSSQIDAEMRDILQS
From the text: In addition, the weak binding by the DBP was indicative of more rapid clearance, allowing for low toxicity.

Hep 3B cells = experiment: Metabolite production in Hep 3B cells incubated with 1α-OH-D2; format: in vitro ADME, human; settings: Experiment 2, photodiode array spectrophotometry
Protocol: Substantially pure 1α-(OH)D2 was obtained from Bone Care International, Inc. of Madison, Wis. The 1α-(OH)D2 was cultured for 48 hours with cells derived from a human hepatoma, Hep 3B, in medium devoid of fetal calf serum using known methods in the art.
Lipid extracts of the combined medium and cells were generated by known methods in the art and were subjected to high pressure liquid chromatography (HPLC) on Zorbax-S1L developed with hexane/isopropanol/methanol (91:7:2). The putative 1α,24(?)-(OH)2 D2 metabolite eluted between the parent 1α-(OH)D2 and standard 1α,25-(OH)2 D2 (also obtained from Bone Care International, Inc. of Madison, Wis.). (As used herein, the term "1α,24(?)-(OH)2 D2 " is meant to indicate that the epimeric form has not been identified.) The 1α,24(?)-(OH)2 D2 was further purified by this HPLC system before the metabolite's identification was undertaken using mass spectrometry analysis.
Hep 3B cells were incubated with 1α-OH-D2, as described above, at final concentrations of 1, 10, or 100 nM (Experiment 1), and 1 or 10 μM (Experiment 2) and 1α,24(S)-(OH)2 D2 was extracted and purified. The 1α,24(S)-(OH)2 D2 and 1α,25-(OH)2 D2 metabolites were quantitated by recovered radiolabel (Experiment 1) or by photodiode array spectrophotometry (Experiment 2).

[2] = tested on: postmenopausal osteoporotic out-patients; experiment: Preventive treatment of bone mass loss in postmenopausal osteoporotic women; format: in vivo, human; settings: at or above 1.0 μg/day, 24 to 36 months
Protocol: A clinical study is conducted with postmenopausal osteoporotic out-patientshaving ages between 55 and 75 years. The study involves up to 120 patients randomly divided into three treatment groups and continues for 24 to 36 months. Two of the treatment groups receive constant dosages of 1α,24(S)-dihydroxy vitamin D2 (u.i.d.; two different dose levels at or above 1.0 μg/day) and the other group receives a matching placebo. All patients maintain a normal intake of dietary calcium (500 to 800 mg/day) and refrain from using calcium supplements. Efficacy is evaluated by pre-and post-treatment comparisons of the patient groups with regard to (a) total body calcium retention, and (b) radial and spinal bone mineral density as determined by dual-photon absorptiometry (DPA) or dual-energy x-ray absorptiometry (DEXA). Safety is evaluated by comparisons of urinary hydroxyproline excretion, serum and urine calcium levels, creatinine. clearance, blood urea nitrogen, and other routine determinations.

HL-60 promyelocytes = experiment: HL-60 cell differentiation assay; format: cell-based; settings: dose-response; acid esterase, NBT reduction, thymidine incorporation
Protocol: A dose-response study is conducted with 1α,24(S)-(OH)2 D2 in the HL-60 cell differentiation assay as described by DeLuca and Ostrom (DeLuca, H. F. and Ostrem, V. K., Prog. Clin. Biol. Res., vol. 259, pp. 41-55 (1988)). In this study, 1α,25-(OH)2 D3 is used as a positive control and appropriate solvents are used as negative controls. The following variables are evaluated: nonspecific acid esterase activity, nitroblue tetrazolium (NBT) reduction, and thymidine incorporation.

C=C1/C(=C\C=C2/CCC[C@]3(C)[C@@H]([C@H](C)/C=C/[C@@](C)(O)C(C)C)CC[C@@H]23)C[C@@H](O)C[C@@H]1O [1α,24(S)-(OH)2 D2, 1α,24(S)-dihydroxy Vitamin D2]
activity in the transcriptional activation system compared with 1α,24(R)-(OH)2 D2 (vitamin D receptor (VDR)): significantly more activity | binding affinity for the vitamin D serum binding protein [1]: more weakly than does 1,25-(OH)2 D3 | Rate of Production (Hep 3B cells; substrate 1α-OH-D2 1 μM): 4.9 pmol per 10^6 cells/day | Rate of Production (Hep 3B cells; substrate 1α-OH-D2 10 μM): 59 pmol per 10^6 cells/day | incidence of hypercalcemia or hypercalciuria, or any other metabolic disturbance [2]: insignificant incidence | total body calcium, and radial and spinal bone densities relative to placebo [2]: significantly higher | differentiation of HL-60 promyelocytes to monocytes (HL-60 promyelocytes): potent activity in promoting differentiation
